Results taken from ChEMBL document CHEMBL3414551, “Selective inhibitors of protein methyltransferases” (J Med Chem, 2015).

Assays:
REH = assay: cells; details: Homo sapiens
697 = assay: cells; details: Homo sapiens
Kasumi 1 = assay: cells; details: Homo sapiens
cells [1] = details: Homo sapiens, U-937
cells [2] = details: Homo sapiens, HL-60
Jurkat = assay: cells; details: Homo sapiens
[3] = target: T1, Histone-lysine N-methyltransferase EZH2 (Homo sapiens, UniProt Q15910); assay: Inhibition of N-terminal FLAG tagged full-length human EZH2 expressed in baculovirus infected Sf9 cells using H3K27 as substrate after 120 mins by mass spectrophotometric analysis
T1 sequence (Q15910 whole entry): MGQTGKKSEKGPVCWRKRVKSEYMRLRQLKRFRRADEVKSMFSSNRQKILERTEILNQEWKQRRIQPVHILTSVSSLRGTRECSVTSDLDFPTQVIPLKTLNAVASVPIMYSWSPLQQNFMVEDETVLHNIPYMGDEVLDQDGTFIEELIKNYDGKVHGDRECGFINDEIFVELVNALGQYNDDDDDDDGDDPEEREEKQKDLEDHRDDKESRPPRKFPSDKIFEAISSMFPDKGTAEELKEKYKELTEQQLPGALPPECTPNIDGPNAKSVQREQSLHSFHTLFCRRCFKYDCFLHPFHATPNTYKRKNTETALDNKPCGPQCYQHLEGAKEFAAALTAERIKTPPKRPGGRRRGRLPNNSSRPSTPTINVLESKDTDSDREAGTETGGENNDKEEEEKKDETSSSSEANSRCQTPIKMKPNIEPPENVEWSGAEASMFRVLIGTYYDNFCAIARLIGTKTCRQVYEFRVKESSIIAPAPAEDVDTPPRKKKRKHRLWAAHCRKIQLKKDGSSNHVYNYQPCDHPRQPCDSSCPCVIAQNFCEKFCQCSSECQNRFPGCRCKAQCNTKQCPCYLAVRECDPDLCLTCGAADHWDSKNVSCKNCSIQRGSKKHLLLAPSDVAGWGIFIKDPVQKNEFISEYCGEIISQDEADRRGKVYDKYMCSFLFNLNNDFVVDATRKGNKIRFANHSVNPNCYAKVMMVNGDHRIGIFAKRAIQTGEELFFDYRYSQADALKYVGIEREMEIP

[4] = target: T1, Histone-lysine N-methyltransferase EZH2; assay: Inhibition of N-terminal FLAG tagged full-length human EZH2 expressed in baculovirus infected Sf9 cells using H3K27 as substrate in presence of SAM
[5] = target: Histone-lysine N-methyltransferase EZH2 (Homo sapiens, UniProt Q15910, Y641F); assay: Inhibition of N-terminal FLAG tagged human EZH2 Y641F mutant expressed in baculovirus infected Sf9 cells using H3K27 as substrate after 120 mins by mass spectrophotometric analysis
Sequence of Histone-lysine N-methyltransferase EZH2 (Homo sapiens, UniProt Q15910, Y641F) (Q15910 whole entry Y641F): as the sequence (Q15910 whole entry) above, with Y641F counted along it

[6] = target: T2, Protein arginine N-methyltransferase 1 (Homo sapiens, UniProt Q99873); assay: Inhibition of recombinant GST-tagged PRMT1 (unknown origin) using GST-P3 as substrate after 90 mins by scintillation counting analysis in presence of [3H]AdoMet
T2 sequence (Q99873 whole entry): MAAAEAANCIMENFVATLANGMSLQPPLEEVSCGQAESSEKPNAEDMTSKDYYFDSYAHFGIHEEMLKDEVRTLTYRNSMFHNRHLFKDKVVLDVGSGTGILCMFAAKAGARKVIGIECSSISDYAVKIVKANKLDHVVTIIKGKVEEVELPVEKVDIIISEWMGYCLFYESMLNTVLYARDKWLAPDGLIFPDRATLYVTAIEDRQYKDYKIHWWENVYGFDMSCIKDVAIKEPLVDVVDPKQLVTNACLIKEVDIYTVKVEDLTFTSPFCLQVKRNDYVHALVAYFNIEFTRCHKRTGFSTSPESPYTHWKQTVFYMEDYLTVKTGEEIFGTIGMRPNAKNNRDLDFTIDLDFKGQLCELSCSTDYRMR

[7] = target: T3, Histone-lysine N-methyltransferase EHMT2 (Homo sapiens, UniProt Q96KQ7); assay: Inhibition of G9a (unknown origin) using SAM/biotinylated H3 as substrate preincubated for 1 hr followed by substrate addition measured after 2 hrs by ELISA
T3 sequence (Q96KQ7 whole entry): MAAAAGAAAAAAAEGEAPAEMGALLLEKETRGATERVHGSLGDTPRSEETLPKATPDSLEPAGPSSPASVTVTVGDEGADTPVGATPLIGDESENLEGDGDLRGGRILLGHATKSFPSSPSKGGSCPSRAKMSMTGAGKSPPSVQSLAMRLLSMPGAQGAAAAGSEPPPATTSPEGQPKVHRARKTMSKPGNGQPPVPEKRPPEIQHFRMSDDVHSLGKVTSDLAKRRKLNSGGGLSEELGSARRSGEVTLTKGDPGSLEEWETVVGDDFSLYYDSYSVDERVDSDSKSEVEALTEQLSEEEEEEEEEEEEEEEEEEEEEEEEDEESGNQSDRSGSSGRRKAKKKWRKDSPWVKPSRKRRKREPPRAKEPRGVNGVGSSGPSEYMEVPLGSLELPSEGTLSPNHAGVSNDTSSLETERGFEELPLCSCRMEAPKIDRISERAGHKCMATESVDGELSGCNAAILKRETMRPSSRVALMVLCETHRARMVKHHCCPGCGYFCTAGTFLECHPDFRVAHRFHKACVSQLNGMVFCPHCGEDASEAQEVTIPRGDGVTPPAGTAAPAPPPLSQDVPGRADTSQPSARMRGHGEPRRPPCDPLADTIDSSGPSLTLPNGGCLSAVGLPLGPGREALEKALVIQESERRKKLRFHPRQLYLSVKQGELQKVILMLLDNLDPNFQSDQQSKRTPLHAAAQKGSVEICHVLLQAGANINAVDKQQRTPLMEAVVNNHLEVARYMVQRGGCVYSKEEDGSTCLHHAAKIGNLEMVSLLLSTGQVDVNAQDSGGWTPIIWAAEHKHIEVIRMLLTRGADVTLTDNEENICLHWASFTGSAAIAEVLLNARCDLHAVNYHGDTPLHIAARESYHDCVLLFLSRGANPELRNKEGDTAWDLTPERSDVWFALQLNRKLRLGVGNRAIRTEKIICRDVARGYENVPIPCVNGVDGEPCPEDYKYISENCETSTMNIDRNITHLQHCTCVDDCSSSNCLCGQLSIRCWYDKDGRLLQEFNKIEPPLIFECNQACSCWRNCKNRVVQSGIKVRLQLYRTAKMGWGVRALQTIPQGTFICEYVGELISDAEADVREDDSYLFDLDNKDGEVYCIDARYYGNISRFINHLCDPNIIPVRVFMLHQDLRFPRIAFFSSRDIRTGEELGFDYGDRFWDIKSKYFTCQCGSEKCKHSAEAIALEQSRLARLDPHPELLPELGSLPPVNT

[8] = target: T4, N-lysine methyltransferase KMT5A (Homo sapiens, UniProt Q9NQR1); assay: Inhibition of N-terminal His6-tagged human SETD8 (191 to 352) assessed as incorporation of [3H]-methyl group from [3H-Me]-SAM to biotinylated H4K20 peptide substrate preincubated for 10 mins followed by substrate addition by liquid scintillation counting analysis
T4 sequence (Q9NQR1 whole entry): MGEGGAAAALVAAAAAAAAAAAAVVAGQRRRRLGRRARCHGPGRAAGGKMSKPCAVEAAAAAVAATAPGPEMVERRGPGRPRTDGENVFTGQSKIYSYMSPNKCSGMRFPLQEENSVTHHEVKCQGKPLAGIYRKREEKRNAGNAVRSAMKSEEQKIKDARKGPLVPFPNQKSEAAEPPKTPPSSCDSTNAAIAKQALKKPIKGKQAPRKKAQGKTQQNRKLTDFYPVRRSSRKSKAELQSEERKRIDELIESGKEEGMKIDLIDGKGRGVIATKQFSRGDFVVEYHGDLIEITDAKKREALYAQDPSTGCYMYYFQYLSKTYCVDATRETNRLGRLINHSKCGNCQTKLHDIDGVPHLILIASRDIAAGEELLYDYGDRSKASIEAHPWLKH

[9] = target: N-lysine methyltransferase SMYD2 (Homo sapiens, UniProt Q9NRG4); assay: Binding affinity to recombinant human full-length SMYD2 (1 to 433) by ITC analysis
Sequence of N-lysine methyltransferase SMYD2 (Q9NRG4 whole entry): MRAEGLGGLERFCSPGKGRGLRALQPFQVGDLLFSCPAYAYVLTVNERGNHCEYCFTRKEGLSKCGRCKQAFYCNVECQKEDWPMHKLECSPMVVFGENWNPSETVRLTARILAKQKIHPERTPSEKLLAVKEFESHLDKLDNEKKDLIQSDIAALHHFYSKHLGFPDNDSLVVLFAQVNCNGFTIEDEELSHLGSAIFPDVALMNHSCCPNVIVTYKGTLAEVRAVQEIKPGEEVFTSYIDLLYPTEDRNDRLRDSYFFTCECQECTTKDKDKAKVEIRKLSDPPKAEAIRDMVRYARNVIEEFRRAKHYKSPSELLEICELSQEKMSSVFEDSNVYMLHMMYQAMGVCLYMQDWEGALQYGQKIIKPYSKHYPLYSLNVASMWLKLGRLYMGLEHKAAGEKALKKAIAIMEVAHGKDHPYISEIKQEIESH

Homo sapiens [10] = organism: Homo sapiens; assay: Selectivity ratio of IC50 for N-terminal His6-tagged human PRMT3 (211 to 531) to IC50 for N-terminal His6-tagged human SETD8 (191 to 352)
Homo sapiens [11] = organism: Homo sapiens; assay: Selectivity ratio of IC50 for human SMYD2 to IC50 for N-terminal His6-tagged human SETD8 (191 to 352)
Homo sapiens [12] = organism: Homo sapiens; assay: Selectivity ratio of IC50 for N-terminal His6-tagged human PRMT1 (10 to 352) to IC50 for N-terminal His6-tagged human SETD8 (191 to 352)
[13] = target: T1, Histone-lysine N-methyltransferase EZH2; assay: Inhibition of EZH2 (unknown origin) using biotinylated-histone H3 (1 to 24) as substrate after 1 hr by scintillation proximity assay in presence of [3H]-SAM
Mus musculus = assay: Cmax in Swiss albino mouse at 50 mg/kg, po; assay type: ADME, organism-based; parameters: dose 50 mg/kg, route oral; details: in vivo
[14] = target: T5, Histone-lysine N-methyltransferase EHMT1 (Homo sapiens, UniProt Q9H9B1); assay: Inhibition of recombinant human GLP (951 to 1235) using Histone H3 peptide (1 to 15) as substrate preincubated on ice for 10 mins followed by 5 mins incubation at 30 degC measured 5 mins post substrate addition by mass spectrophotometric analysis
T5 sequence (Q9H9B1 whole entry): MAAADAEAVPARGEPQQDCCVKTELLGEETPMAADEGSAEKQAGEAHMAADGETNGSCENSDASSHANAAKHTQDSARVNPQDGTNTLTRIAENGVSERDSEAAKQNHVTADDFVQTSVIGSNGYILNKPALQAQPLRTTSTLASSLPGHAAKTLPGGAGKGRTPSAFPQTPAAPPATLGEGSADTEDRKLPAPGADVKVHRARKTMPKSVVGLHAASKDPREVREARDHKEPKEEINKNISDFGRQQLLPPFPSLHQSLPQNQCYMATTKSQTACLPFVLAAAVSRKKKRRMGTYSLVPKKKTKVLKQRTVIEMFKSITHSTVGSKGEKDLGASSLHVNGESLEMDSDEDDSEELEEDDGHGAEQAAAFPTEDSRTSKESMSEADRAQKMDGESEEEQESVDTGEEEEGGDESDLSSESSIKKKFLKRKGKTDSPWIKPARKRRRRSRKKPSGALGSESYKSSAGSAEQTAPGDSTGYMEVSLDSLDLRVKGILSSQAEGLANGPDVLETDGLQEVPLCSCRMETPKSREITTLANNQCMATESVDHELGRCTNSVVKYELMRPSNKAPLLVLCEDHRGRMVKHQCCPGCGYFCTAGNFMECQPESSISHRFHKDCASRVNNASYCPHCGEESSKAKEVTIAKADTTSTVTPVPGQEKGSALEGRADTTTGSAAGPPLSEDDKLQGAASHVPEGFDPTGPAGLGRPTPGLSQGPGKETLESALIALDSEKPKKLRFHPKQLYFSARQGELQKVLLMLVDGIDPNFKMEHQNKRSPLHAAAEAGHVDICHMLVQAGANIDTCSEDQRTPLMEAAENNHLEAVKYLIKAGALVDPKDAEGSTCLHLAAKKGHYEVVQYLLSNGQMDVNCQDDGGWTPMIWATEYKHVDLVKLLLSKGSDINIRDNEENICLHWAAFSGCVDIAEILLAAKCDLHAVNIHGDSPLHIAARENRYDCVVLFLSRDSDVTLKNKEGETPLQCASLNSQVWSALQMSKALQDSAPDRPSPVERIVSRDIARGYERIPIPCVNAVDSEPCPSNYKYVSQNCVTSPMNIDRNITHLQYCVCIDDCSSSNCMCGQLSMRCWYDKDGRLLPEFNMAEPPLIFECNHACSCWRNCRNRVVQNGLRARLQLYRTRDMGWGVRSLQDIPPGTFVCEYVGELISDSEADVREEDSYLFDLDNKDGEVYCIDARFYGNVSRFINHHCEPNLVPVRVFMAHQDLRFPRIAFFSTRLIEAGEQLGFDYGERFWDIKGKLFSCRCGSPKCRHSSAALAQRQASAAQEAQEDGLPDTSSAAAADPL

[15] = target: T6, Histone-arginine methyltransferase CARM1 (Homo sapiens, UniProt Q86X55); assay: Inhibition of recombinant human GST-tagged CARM1
T6 sequence (Q86X55 whole entry): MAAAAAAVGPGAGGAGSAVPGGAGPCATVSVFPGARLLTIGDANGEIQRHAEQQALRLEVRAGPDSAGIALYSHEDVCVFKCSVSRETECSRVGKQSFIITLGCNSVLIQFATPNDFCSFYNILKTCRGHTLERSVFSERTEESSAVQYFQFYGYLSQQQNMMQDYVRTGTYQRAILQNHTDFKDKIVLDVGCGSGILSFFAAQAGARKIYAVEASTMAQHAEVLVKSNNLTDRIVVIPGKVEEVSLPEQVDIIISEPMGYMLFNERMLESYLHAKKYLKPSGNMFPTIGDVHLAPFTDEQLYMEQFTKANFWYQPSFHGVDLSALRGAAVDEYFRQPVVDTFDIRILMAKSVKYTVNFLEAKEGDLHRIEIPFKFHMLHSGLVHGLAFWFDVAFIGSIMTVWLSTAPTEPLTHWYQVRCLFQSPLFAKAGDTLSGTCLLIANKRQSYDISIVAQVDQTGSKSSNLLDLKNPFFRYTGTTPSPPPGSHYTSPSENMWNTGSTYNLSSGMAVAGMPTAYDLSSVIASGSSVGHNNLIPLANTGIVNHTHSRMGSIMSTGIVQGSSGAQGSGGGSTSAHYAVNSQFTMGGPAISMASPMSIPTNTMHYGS

[16] = target: T2, Protein arginine N-methyltransferase 1; assay: Inhibition of recombinant human GST-tagged PRMT1 using GST-Npl3 as substrate
[17] = target: T7, Histone-arginine methyltransferase CARM1 (Homo sapiens) (UniProt Q86X55); assay: Inhibition of CARM1 in human HeLa cells assessed as reduction of H3R17 methylation at 5 uM after 24 hrs by Western blot analysis relative to control; assay type: cell-based
T7 sequence (whole entry): T6 sequence (Q86X55 whole entry)

[18] = target: T1, Histone-lysine N-methyltransferase EZH2; assay: Inhibition of human EZH2 using SAM and histone H3 (16 to 30) as substrate preincubated for 30 mins followed by substrate addition measured after 90 mins by flash plate assay
[19] = target: Histone-lysine N-methyltransferase, H3 lysine-79 specific (Homo sapiens, UniProt Q8TEK3); assay: Inhibition of DOT1L in human MCF10A cells assessed as reduction of H3K79 level; assay type: cell-based, MCF-10A
Sequence of Histone-lysine N-methyltransferase, H3 lysine-79 specific (Q8TEK3 whole entry): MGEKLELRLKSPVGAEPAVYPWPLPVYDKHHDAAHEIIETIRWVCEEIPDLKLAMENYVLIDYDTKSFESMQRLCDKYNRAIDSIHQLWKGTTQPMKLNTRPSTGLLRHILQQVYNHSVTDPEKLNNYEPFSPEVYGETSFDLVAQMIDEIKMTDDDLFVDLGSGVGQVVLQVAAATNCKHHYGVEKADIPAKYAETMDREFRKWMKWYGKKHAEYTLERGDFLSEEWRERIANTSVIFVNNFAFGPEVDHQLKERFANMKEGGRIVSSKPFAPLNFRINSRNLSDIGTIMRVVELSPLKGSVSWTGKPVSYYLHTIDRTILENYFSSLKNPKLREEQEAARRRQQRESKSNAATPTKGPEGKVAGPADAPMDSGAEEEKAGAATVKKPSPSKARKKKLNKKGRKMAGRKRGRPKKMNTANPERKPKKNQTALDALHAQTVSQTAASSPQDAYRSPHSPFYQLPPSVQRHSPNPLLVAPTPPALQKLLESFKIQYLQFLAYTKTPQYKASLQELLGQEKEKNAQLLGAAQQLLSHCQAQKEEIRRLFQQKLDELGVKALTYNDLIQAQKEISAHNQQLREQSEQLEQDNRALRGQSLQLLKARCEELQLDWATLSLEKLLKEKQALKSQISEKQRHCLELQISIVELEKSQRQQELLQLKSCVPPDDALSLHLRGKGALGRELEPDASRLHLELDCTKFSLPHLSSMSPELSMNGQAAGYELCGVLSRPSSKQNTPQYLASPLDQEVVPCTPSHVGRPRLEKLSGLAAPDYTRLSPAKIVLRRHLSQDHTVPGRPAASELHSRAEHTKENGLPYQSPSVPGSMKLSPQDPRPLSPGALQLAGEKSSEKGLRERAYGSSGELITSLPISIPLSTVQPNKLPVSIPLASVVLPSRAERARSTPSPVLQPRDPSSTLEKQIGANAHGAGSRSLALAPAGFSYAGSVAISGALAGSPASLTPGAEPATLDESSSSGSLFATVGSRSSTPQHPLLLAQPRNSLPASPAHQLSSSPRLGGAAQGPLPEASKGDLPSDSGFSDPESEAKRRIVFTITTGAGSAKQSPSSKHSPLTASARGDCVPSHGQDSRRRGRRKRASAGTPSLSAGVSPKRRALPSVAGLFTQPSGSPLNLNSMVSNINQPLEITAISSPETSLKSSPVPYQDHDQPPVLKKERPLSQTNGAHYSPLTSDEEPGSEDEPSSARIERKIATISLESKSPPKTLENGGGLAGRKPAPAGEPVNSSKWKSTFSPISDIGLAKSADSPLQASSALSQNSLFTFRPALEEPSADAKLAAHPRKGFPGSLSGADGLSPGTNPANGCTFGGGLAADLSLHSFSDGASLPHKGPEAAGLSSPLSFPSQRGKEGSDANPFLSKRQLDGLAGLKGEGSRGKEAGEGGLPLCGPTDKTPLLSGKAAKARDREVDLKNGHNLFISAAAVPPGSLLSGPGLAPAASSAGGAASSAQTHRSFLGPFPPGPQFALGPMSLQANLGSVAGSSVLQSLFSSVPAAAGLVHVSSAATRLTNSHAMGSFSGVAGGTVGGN

## CC(C)N(CCCNC(=O)Nc1ccc(C(C)(C)C)cc1)C[C@H]1O[C@@H](n2ccc3c(N)ncnc32)[C@H](O)[C@@H]1O
REH
  IC50: > 10 µM
697
  IC50: > 10 µM
Kasumi 1
  IC50: > 10 µM
Cells [1]
  IC50: > 10 µM
Cells [2]
  IC50: > 10 µM
Jurkat
  IC50: > 10 µM

## CCC(CC)n1ccc2c(C(=O)NCc3c(C)cc(C)[nH]c3=O)cc(C#N)cc21
[3]
  IC50: 0.015 µM
[4]
  Ki: 0.013 µM
[5]
  IC50: 0.013 µM

## NCCCN(CC[C@H](N)C(=O)O)C[C@H]1O[C@@H](n2cnc3c(N)ncnc32)[C@H](O)[C@@H]1O
[6]
  IC50: 3.9 µM

## CN1C(=O)[C@@H]2C[C@@]3([C@@]45C[C@H]6C(=O)N(C)[C@@H](CO)C(=O)N6[C@@H]4Nc4ccccc45)c4ccccc4N[C@H]3N2C(=O)[C@@H]1CO
[7]
  IC50: > 50 µM

## Cc1ccc(/N=C2\CC(=O)c3sc(C)nc3C2=O)cc1
[8]
  IC50: 0.5 µM

## O=C1COc2c(CCNCCN(C(=O)CCNCCc3ccc(Cl)c(Cl)c3)C3CCCCC3)ccc(O)c2N1
[9]
  Kd: 0.5 µM

## O=C1C(Cl)=C(NCCN2CCOCC2)C(=O)c2ncccc21
Homo sapiens [10]
  Ratio IC50: > 6
Homo sapiens [11]
  Ratio IC50: 2.5
Homo sapiens [12]
  Ratio IC50: > 6

## CCCc1cc(C)[nH]c(=O)c1CNC(=O)c1cc(-c2ccc(N3CCN(C(C)C)CC3)nc2)cc2c1cnn2C(C)C
[13]
  IC50: < 0.01 µM
Mus musculus
  Cmax: 4.7 µM

## CCCc1cc(C)[nH]c(=O)c1CNC(=O)c1cc(-c2ccc(N3CCN(CCCCc4cn(CCN5C(=O)\C(=C/C=C/C=C6/N(CCC(=O)OCOC(C)=O)c7ccc(C(=O)OCOC(C)=O)cc7C6(C)C)C(=O)N(CC)C5=O)nn4)CC3)nc2)cc2c1cnn2C(C)C
[13]
  IC50: 0.021 µM

## COc1cc2c(NC3CCN(CCCCCN)CC3)nc(NCCCN(C)C)nc2cc1OCCCCCN
[14]
  IC50: 0.1 µM

## COc1ccc(/N=N/c2c(S(=O)(=O)O)cc3cc(Nc4nc(Cl)nc(Cl)n4)ccc3c2O)cc1
[15]
  IC50: 2.6 µM
[16]
  IC50: 4.2 µM

## O=c1oc2c(O)c(O)cc3c(=O)oc4c(O)c(O)cc1c4c23
[17]
  inhibition: > 50%

## Cc1cc(C)c(CNC(=O)c2cc(-c3ccc4c(c3)OCCO4)nc3c2cnn3C(C)C)c(=O)[nH]1
[18]
  IC50: 0.62 µM

## CC(C)N(CCCNC(=O)Nc1ccc(C(C)(C)C)cc1)C[C@H]1O[C@@H](n2cc(Br)c3c(N)ncnc32)[C@H](O)[C@@H]1O
[19]
  IC50: 0.0088 µM
